The values that follow come from ChEMBL document CHEMBL4715706, “Discovery of Benzotriazolo[4,3-d][1,4]diazepines as Orally Active Inhibitors of BET Bromodomains” (ACS Med Chem Lett, 2016).

pIC50: −log10 of the molar value. Active and inactive are the calls of the source. No cut-off for these calls is given here.

For series [1], the target named is T1, Bromodomain and PHD finger-containing protein 3 (Homo sapiens, UniProt Q9ULD4).
T1 sequence (Q9ULD4 whole entry): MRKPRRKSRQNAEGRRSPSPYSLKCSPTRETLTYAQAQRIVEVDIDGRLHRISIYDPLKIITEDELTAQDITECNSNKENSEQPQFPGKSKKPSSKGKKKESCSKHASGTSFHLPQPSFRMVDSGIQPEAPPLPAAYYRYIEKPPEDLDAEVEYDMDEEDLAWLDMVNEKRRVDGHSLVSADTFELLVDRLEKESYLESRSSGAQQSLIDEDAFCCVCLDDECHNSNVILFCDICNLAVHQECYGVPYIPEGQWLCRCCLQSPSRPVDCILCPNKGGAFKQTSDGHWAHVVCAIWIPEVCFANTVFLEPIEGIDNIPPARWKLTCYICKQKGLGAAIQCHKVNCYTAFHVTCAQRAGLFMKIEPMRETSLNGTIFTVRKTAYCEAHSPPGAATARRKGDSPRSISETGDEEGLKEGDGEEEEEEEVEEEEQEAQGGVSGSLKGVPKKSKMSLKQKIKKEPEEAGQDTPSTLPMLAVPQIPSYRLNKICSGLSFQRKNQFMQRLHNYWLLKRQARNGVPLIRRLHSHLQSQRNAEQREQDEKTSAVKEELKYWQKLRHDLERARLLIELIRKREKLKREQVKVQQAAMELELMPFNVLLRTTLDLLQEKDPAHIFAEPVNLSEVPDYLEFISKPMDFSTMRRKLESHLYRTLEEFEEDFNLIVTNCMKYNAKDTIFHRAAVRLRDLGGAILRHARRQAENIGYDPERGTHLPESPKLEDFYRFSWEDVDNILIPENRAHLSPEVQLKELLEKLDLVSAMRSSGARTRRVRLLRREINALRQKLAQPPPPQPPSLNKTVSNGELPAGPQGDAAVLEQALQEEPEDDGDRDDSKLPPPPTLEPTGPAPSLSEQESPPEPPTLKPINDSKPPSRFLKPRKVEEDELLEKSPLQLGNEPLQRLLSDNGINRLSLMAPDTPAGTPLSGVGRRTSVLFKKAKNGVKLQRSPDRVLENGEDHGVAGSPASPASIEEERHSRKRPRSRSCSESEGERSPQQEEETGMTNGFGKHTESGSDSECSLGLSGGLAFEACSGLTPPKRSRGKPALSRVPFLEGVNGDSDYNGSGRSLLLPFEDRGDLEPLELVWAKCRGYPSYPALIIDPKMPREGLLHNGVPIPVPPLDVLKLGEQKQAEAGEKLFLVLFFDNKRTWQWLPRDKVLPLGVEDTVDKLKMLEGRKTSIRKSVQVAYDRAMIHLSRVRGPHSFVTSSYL
Kind of series: Inhibition of BRPF3 (unknown origin) measured after 70 mins by TR-FRET assay.

Series [2] is described as follows: Protein binding in dog plasma.
Series [3] addresses T2, Bromodomain-containing protein 1 (Homo sapiens, UniProt O95696).
T2 sequence (O95696 whole entry): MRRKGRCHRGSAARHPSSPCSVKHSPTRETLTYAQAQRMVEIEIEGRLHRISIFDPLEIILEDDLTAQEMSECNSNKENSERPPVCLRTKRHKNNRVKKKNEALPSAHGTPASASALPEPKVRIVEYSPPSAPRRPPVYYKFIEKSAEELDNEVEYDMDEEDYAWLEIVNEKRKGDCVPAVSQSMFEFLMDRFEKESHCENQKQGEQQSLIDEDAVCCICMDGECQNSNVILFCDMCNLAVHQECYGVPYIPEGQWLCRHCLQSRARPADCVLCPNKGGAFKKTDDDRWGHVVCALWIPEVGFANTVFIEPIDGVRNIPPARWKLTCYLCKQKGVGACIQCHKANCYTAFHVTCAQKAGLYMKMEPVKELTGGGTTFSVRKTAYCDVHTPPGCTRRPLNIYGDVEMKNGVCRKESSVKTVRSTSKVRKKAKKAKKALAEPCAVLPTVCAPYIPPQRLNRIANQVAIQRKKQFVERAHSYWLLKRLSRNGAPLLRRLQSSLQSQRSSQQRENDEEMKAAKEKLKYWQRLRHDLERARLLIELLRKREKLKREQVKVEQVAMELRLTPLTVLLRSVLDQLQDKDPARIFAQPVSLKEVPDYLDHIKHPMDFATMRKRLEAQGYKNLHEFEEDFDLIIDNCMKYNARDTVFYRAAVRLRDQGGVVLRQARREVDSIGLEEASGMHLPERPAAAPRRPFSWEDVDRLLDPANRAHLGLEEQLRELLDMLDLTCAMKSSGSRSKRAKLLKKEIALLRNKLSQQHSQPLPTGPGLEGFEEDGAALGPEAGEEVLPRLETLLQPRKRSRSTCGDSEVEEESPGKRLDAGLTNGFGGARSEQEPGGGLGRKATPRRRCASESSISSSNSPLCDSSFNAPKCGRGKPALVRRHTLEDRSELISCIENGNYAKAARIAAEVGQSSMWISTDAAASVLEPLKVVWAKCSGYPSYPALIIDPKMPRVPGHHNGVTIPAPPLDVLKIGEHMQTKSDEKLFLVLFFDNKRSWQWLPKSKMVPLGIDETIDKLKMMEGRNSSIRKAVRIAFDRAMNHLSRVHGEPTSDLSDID
Kind of series: Inhibition of BRD1 (unknown origin) measured after 70 mins by TR-FRET assay. For orientation: In TR-FRET formats the signal depends on donor and acceptor labels being close together.

Series [4] relates to Mus musculus. Kind of series: In vivo inhibition of BET in BALB/c mouse assessed as suppression of LPS-induced IL-6 level in plasma at 15 mg/kg, po pretreated with compound followed by LPS challenge and measured after 2 hrs by ELISA. It counts as functional, organism-based. On the technique in general: ELISA stands for enzyme-linked immunosorbent assay.
The target of series [5] is Bromodomain-containing protein 4 (Homo sapiens, UniProt O60885). Kind of series: Inhibition of BRD4 BD2 (unknown origin) using biotinylated JQ1 analog as substrate measured after 20 mins by AlphaLISA assay. (In general: Alpha assays give light when donor and acceptor beads are brought close together.)

What is called pIC50 is the negative decadic logarithm of the IC50, by convention in mol/L. Broadly, the fraction unbound is free concentration divided by total concentration.

As to `Cc1nnc2n1-c1ccc(-c3ccc(N)nc3)cc1N(c1ccc(Cl)cc1)C[C@H]2C`, the pIC50 was less than 4.82 in series [1], less than 4.82 in series [3] and 8.52 in series [5]. The molecule further had an unbound share (fraction unbound) in series [2] of 0.04. For the same molecule, the inhibition entry in series [4] was “Active”.
